Several values for one entry are separate records, joined by “and”; a condition that tells them apart may be missing. Identical values can stand only once. Marks after values point to notes of the source that are not given here.
Legend:
[1] = tested on: high-fat-induced rat insulin resistance models; assay: High-fat-induced rat insulin resistance model, therapeutic administration; assay type: in vivo
Excerpt: (§1) 8-week-old male […] were selected as experimental animals. The rats were adaptively fed for 1 week after purchase, and then weighed for the fasting body weight. The healthy rats weighing 22-24 g were selected and randomly divided into groups according to the experimental flow design. (1) The rats were fed with normal feed and high-fructose feed for 8 weeks; (2) the rats were fed with high-fat feed for 12 weeks; (3) the rats were fed with high-fat feed for 8 weeks as a preventive experiment. Fasting body weights were measured and recorded regularly every week, and the rats were guaranteed to have free access to water and food during feeding. The food intake, water intake, and free movement of the model rats were continuously observed, and the rats with stunted growth, rough hair, and rickety posture after eating high-fructose and high-fat diets were screened out. In the experiment later, the rats were fed with normal feed or high-fructose/high-fat feed during the 2 weeks of intraperitoneal injection to ensure the consistency before and after administration.
(§2) A total energy-to-mass ratio was 4.73 kcal/g. The feed was provided by Beijing Huafukang Biotechnology Co., Ltd.
(§3) Anle138b solutions: The drug doses required for 1 week of intervention for each group of rats were calculated, Anle138b drug concentrations of 1 mg/kg (0.01%), 3 mg/kg (0.03%) and 5 mg/kg (0.05%) were prepared, Anle138b powder was weighed and then added in 10% DMSO, 40% PEG300, 5% Tween-80 and 45% saline in sequence, each mixture was evenly blended by vortex into a clear solution, and each Anle138b solution was separately bottled according to the daily dose and stored in a refrigerator at 4° C.
(§4) The 8-week-old adult rats were modeled by changing the diets after 1 week of adaptive feeding. Blood was collected from the right orbital venous plexus with a glass tube at 8 weeks and 12 weeks after model establishment and after fasting (>12 h), and blood glucose levels were measured with a blood glucose tester (Sannuo GA-3); and the insulin resistance mode was judged by the subsequent determination of metabolic indexes, such as glucose tolerance test by intraperitoneal injection, fasting serum insulin (enzyme-linked immunosorbent assay, Raybiotech), serum triglyceride (GPO-PAP single-reagent microplate method, Nanjing Jiancheng) and cholesterol ([…] single-reagent microplate method, Nanjing Jiancheng).
The rat IR models were randomly divided into two groups, the rats were administrated with Anle138b 3 mg/kg (n=6, 0.03%) and 5 mg/kg (n=6, 0.05%) for 2 weeks continuously, once a day.
After the models were determined to be successful, the average value of food intake of each rat in the first two days was taken as its own food intake base. After the drug intervention, the daily food intake and body weight were measured and compared with their own bases for comparison of the standardized food intake and body weight of each rat. […]

normal rats = assay: Normal rats given Anle138b (normal drug / drug control group); assay type: in vivo; settings: 3 mg/kg i.p., 2 weeks
Excerpt: as §1, §3, §4
(1) The normal rats were randomly divided into two groups: blank control group (n=6) and drug control group (n=7); the rats in the normal control group were intraperitoneally injected with a similar volume of solvent and Anle138b (3 mg/kg, 0.03%) according to the body weight for 2 weeks.

[2] = tested on: high-fat-induced rat insulin resistance model; assay: High-fat-induced rat insulin resistance model, preventive administration; assay type: in vivo, C57BL/6J rats; settings: high-fat diet, preventive 5 mg/kg
Excerpt: as §1, §2, §3, §4
Rats fed with high-fat diet for 5 weeks were randomly divided into high-fat feeding control group (n=6) and drug intervention group with Anle138b 5 mg/kg, and the rats were administered for 3 weeks continuously, once every two days.

[3] = tested on: high-fat-induced rat insulin resistance models; assay: Anle138b treatment versus paired-feed (PF) group in high-fat rat insulin resistance models; assay type: in vivo; settings: high-fat model, 5 mg/kg, compared with PF group
Protocol: The rats fed with high-fat diet for 8 weeks were divided into paired-feed group (n=7) (the food intake was the same as that of high-fat Anle138b 5 mg/kg/d) and control group continuously fed with high-fat diet.
Pair-feed (PF) group: the pair-feed group was set according to the daily food intake in the high-fat group after intervention with Anle138b 5 mg/kg, the rats were given the same amount of high-fat diet every day, and the changes in the body weight and the metabolic indexes were measured.

[4] = tested on: high-fructose-induced rat insulin resistance models; assay: High-fructose-induced rat insulin resistance model, therapeutic administration; assay type: in vivo
Excerpt: as §1, §3
L-THP solution: The drug dose required for 1 week of intervention for each group of rats was calculated, L-THP drug concentrations of 3 mg/kg (0.03%) was prepared, light yellow L-THP powder was weighed and then added in 10% DMSO, 40% PEG300, 5% Tween-80 and 45% saline in sequence, each mixture was evenly blended by vortex into a clear solution, and each Anle138b solution was separately bottled according to the daily dosage and stored in a refrigerator at 4° C.
as §4
The rats were fed with 60% high-fructose diet for 8 weeks to establish insulin resistance models, and the rats fed with normal diet provided by the animal room of Shantou University Medical College were used as controls. After fasting, orbital blood was collected, and fasting blood glucose, serum insulin, glucose tolerance were determined to judge whether the modeling was successful. According to an insulin resistance index (HOMA-IR) as the core judgment index, the successfully modeled rats were enrolled by screening the IR index of >3 and randomly divided into groups to explore the influence of different concentrations of Anle138b on the rat insulin resistance models. The concentration gradients for different groups were 0 mg/kg (injection solvent, namely the model control group), 1 mg/kg, 3 mg/kg and 5 mg/kg clear Anle138b solution, as well as the L-THP 3 mg/kg positive drug control group. The rats were administrated by intraperitoneal injection for 2 weeks continuously, once a day.
The insulin resistance value was calculated in combination with the method for calculating the insulin resistance index (HOMA-IR) in the homeostasis model assessment method. […]

[5] = 3 mg/kg/d, 2 weeks, 3 mg/kg/day
[6] = 5 mg/kg/d, 2 weeks, 5 mg/kg/day
[7] = 2 weeks, with increase of drug concentration
[8] = 1 mg/kg i.p. once a day, 2 weeks
[9] = 3 mg/kg i.p. once a day, 2 weeks
[10] = 5 mg/kg i.p. once a day, 2 weeks

Question: What does the source list for `Brc1cccc(-c2cc(-c3ccc4c(c3)OCO4)[nH]n2)c1` [Anle138b]?
Answer: Fat weight index ([1]; 3 mg/kg): 0.01317±0.004212; Feeding efficiency (daily body weight change/energy consumption) ([1]; 3 mg/kg): −0.007788±0.01949 g/calories/rat/day; Glucose tolerance test area under curve (AUC) ([1]; 3 mg/kg): 1,203±155.6 min*mmol/L; Liver weight index ([1]; 3 mg/kg): 0.04475±0.003; Liver pathomorphism, HE staining ([1]; 3 mg/kg and 5 mg/kg): the hepatic steatosis was significantly alleviated; Pancreas pathomorphism, HE staining ([1]; 3 mg/kg and 5 mg/kg, as the dose increases): the acinar steatosis was significantly alleviated; Average daily food intake ([1]; 3 mg/kg once a day, 2 weeks): 1.946 ± 0.4777 g/day; Body weight after intervention ([1]; 3 mg/kg once a day, 2 weeks): 28.97 ± 1.657 g; Fasting Blood Glucose [1, 5]: 5.283 ± 0.74 mmol/L; Fasting Insulin [1, 5]: 55.24±28.94 μIU/mL; Insulin Resistance Index [1, 5]: 11.6±5.044 μIU/mL*mmol/L and 11.6 ± 5.04 μIU/mL*mmol/L; Triglyceride [1, 5]: 0.5138 ± 0.06 mmol/L; Fat weight index ([1]; 5 mg/kg): decreased; Feeding efficiency (daily body weight change/energy consumption) ([1]; 5 mg/kg): −0.01528±0.01287 g/calories/rat/day; Glucose tolerance test area under curve (AUC) ([1]; 5 mg/kg): 1,059±153.2 min*mmol/L; Liver weight index ([1]; 5 mg/kg): 0.04344±0.0026; Body weight after intervention ([1]; 5 mg/kg once a day, 2 weeks): 28.9 ± 1.685 g; Average daily food intake ([1]; 5 mg/kg once a day, 2 weeks, P<0.001): significantly lower than that of the model group; Fasting Blood Glucose [1, 6]: 4.867 ± 0.36 mmol/L; Fasting Insulin [1, 6]: 36.27±16.53 μIU/mL; Insulin Resistance Index [1, 6]: 8.446±3.617 μIU/mL*mmol/L and 8.446 ± 3.62 μIU/mL*mmol/L; Triglyceride [1, 6]: 0.5164 ± 0.06 mmol/L; Epididymal adipose tissue pathomorphism, HE staining [1, 7]: the adipocytes were reduced in sizes and arranged regularly; Skeletal muscle pathomorphism, HE staining ([1]; drug intervention 2 weeks): the intermuscular steatosis was relieved; Body Weight After Administration (normal rats): 25.65 ± 0.7842 g; Fasting Blood Glucose (normal rats): 3.650 ± 0.33 mmol/L; Fasting Insulin (normal rats; 3 mg/kg): 15.08±13.14 μIU/mL; HOMA-IR (normal rats; 3 mg/kg): 1.1689±1.153 μIU/mL*mmol/L and 1.1689 ± 1.15 μIU/mL*mmol/L; Adipose tissue pathomorphism, HE staining [2]: relieved the structural disorder of the adipose tissue; Daily feeding efficiency [2]: −0.03518±0.02726; Fasting Blood Glucose [2]: 6.313 ± 0.63 mmol/L; Fasting Insulin [2]: 22.09±6.49 μIU/mL; Fat weight index [2]: 0.01195±0.003; Glucose tolerance test area under curve (AUC) [2]: 1,269±74 min*mmol/L; Insulin Resistance Index [2]: 6.880±2.73 μIU/mL*mmol/L; Liver weight index [2]: 0.03763±0.001; Pancreas pathomorphism, HE staining [2]: significantly inhibit the steatosis of pancreatic acinar cells; Total Cholesterol [2]: 3.383 ± 0.21 mmol/L; Triglyceride [2]: 0.4687 ± 0.05 mmol/L; Body weight at end point of prevention experiment ([2]; 3 weeks, once every two days): 25.8 ± 0.67 g; Food intake ([2]; 3 weeks, once every two days): 1.805±0.19 g/rat; Average body weight [3]: 28.23 ± 0.66 g; Fasting Blood Glucose [3]: 4.87 ± 0.36 mmol/L; Feeding efficiency [3]: −0.015±0.013; Triglyceride [3]: 0.52 ± 0.06 mmol/L; Body Weight After Administration [4, 8]: 25.58 ± 1.555* * g; Fasting Blood Glucose [4, 8]: 5.100 ± 0.65 # mmol/L; Fasting Insulin [4, 8]: 48.97 ± 1.38 μIU/mL; HOMA-IR [4, 8]: 11.3 ± 1.78 μIU/mL*mmol/L; Glucose tolerance test area under curve (AUC) ([4]; 1 mg/kg i.p., 2 weeks): 1,307±46.38 min*mmol/L; Right epididymal fat weight index (fat weight/fasting body weight) ([4]; 1 mg/kg i.p., 2 weeks): 0.008918±0.0003788; Body Weight After Administration [4, 9]: 25.51 ± 0.8009 g; Fasting Blood Glucose [4, 9]: 5.300 ± 0.89 mmol/L; Fasting Insulin [4, 9]: 21.46 ± 10.36 # μIU/mL; HOMA-IR [4, 9]: 5.438 ± +2.13 # μIU/mL*mmol/L; Right epididymal fat weight index (fat weight/fasting body weight) ([4]; 3 mg/kg i.p., 2 weeks): 0.007657±0.002366; Body Weight After Administration [4, 10]: 24.25 ± +2.652 g; Fasting Blood Glucose [4, 10]: 4.675 ± 0.95 # mmol/L; Fasting Insulin [4, 10]: 25.74 ± 12.24 # μIU/mL; HOMA-IR [4, 10]: 5.827 ± 3.78 # μIU/mL*mmol/L; Glucose tolerance test area under curve (AUC) ([4]; 5 mg/kg i.p., 2 weeks): 1,261±103.2 min*mmol/L; Right epididymal fat weight index (fat weight/fasting body weight) ([4]; 5 mg/kg i.p., 2 weeks): 0.007971±0.00142; Epididymal adipose tissue pathomorphism, HE staining [4, 7]: the adipocytes were reduced in sizes and arranged regularly; Liver pathomorphism, HE staining ([4]; different concentrations, dose-dependent): the hepatic steatosis was significantly alleviated

Question: With `COc1cc2c(cc1OC)[C@@H]1Cc3ccc(OC)c(OC)c3CN1CC2` [L-THP, reference compound] as the molecule, how does the “Body Weight After Administration” value [4, 9] read?
Answer: 24.24 ± 1.255 g

Question: And the “Fasting Blood Glucose” value [4, 9]?
Answer: 4.967 ± 0.39 # mmol/L

Question: And the “Fasting Insulin” value [4, 9]?
Answer: 24.76 ± 9.70 # # μIU/mL

Question: What about the HOMA-IR [4, 9] of the same molecule?
Answer: 6.029 ± 3.33 # μIU/mL*mmol/L

Question: And the “Right epididymal fat weight index (fat weight/fasting body weight)” value ([4]; 3 mg/kg i.p., 2 weeks)?
Answer: 0.00751±0.002279
